Experimental data as given in patent publication US20260297042A1, “BIARYLAMIDE DERIVATIVES AND THEIR USE AS PKMYT1 INHIBITORS” (CANCER RESEARCH TECHNOLOGY LIMITED, priority 2023, published 2026).

Key:
Human PKMYT1 = target: T1, Human PKMYT1 (Homo sapiens, UniProt Q99640); test: PKMYT1 biochemical ADP-Glo enzymatic assay; details: ADP-Glo; 15 nM PKMYT1 kinase domain, 500 µM ATP, 60 minutes at 26° C.; banded
T1 construct: Human PKMYT1 75-362 was cloned as a TEV cleavable 6xHis fusion; 6xHis (TEV cleavable) (cleaved yes); made in house; host or cells: bacterial cells
T1 sequence (Q99640 75-362): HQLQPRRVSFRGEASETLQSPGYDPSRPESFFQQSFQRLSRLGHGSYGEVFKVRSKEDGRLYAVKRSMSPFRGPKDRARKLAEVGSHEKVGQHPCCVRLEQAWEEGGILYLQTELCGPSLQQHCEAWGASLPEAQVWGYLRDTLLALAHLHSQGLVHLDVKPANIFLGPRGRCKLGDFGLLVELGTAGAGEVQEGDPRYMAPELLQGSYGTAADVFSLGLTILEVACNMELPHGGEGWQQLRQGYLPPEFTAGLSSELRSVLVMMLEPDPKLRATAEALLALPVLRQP
Method in brief: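 Intrinsic ATPase activity of E. coli-expressed, tag-cleaved human PKMYT1 kinase domain (75-362), 15 nM, with 500 µM ATP in HEPES pH 7.5/MgCl2/EGTA/Brij-35, 1% DMSO, 60 min at 26 °C. ADP formed was read by ADP-Glo Max luminescence; IC50 from 10-point, 3-fold dilution curves.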

WEE1 = target: T2, WEE1 (Homo sapiens, UniProt P30291); test: Selectivity versus WEE1 assay (ADP-Glo enzymatic assay); assay type: biochemical; details: banded; for IC50: ADP-Glo, 15 nM WEE1, 60 minutes at 26° C.; for PKMYT1 vs. WEE1 selectivity: fold difference in selectivity for PKMYT1 over WEE1, ">N" = at least in this band but could be higher
T2 construct: purchased Thermo Fisher PR7373A
T2 sequence (P30291 whole entry): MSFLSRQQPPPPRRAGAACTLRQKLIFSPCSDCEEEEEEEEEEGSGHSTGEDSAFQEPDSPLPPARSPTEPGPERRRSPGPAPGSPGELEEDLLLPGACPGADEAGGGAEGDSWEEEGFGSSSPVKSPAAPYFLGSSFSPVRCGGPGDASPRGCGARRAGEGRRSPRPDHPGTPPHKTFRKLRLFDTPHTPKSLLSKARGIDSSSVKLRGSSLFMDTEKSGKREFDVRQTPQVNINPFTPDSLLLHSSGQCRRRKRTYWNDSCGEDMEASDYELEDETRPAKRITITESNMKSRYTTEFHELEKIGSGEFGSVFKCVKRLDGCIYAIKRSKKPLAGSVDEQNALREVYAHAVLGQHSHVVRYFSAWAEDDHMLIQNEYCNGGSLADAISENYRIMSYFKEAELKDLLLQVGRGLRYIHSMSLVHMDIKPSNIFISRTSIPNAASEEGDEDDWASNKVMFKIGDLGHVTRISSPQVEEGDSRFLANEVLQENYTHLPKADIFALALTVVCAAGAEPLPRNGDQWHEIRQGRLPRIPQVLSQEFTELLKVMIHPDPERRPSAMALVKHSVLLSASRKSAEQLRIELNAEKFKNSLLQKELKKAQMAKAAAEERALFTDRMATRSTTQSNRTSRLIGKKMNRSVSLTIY
Method in brief: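 Kinase at 15 nM final in 50 mM HEPES pH 7.5, 10 mM MgCl2, 1 mM EGTA, 0.01% Brij-35, 1% DMSO was started with 30 µM ATP and run 60 min at 26° C. ADP formed was read by ADP-Glo luminescence; IC50 came from dose-response curves.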

| IC50 (Human PKMYT1) [nM] | IC50 (WEE1) [nM] | PKMYT1 vs. WEE1 selectivity (WEE1) | Compound |
| --- | --- | --- | --- |
| 50 to 1000 | > 11000 | X (100-<1000 fold) | Cc1cc(Nc2ccc(F)cc2)nnc1Nc1ncc(C(=O)Nc2c(C)ccc(O)c2C)s1 [BAA-324, 2-((6-((4-fluorophenyl)amino)-4-methylpyridazin-3-yl)amino)-N-(3-hydroxy-2,6-dimethylphenyl)thiazole-5-carboxamide] |
| 50 to 1000 | 1000 to 11000 | W (10-<100 fold) | Cc1ccc(O)c(C)c1NC(=O)c1cnc(Nc2cc3ccc(O)cn3n2)s1 [BAA-343, N-(3-Hydroxy-2,6-dimethylphenyl)-2-((6-hydroxypyrazolo[1,5-a]pyridin-2-yl)amino)thiazole-5-carboxamide] |
| 50 to 1000 | > 11000 | Y (1000-5000 fold) | Cc1ccc(O)c(C)c1NC(=O)c1cnc(NCc2ccccc2)s1 [BAA-344, 2-(benzylamino)-N-(3-hydroxy-2,6-dimethylphenyl) thiazole-5-carboxamide] |
| 50 to 1000 | > 11000 | Y (1000-5000 fold) | Cc1ccc(O)c(C)c1NC(=O)c1cnc(NCc2cccnc2)s1 [BAA-345, N-(3-hydroxy-2,6-dimethylphenyl)-2-((pyridin-3-ylmethyl)amino)thiazole-5-carboxamide] |
| < 50 | > 11000 | Y (1000-5000 fold) | Cc1ccc(O)c(C)c1NC(=O)c1cnc(NCc2cccc(O)c2)s1 [BAA-346, N-(3-hydroxy-2,6-dimethylphenyl)-2-((3-hydroxybenzyl)amino)thiazole-5-carboxamide] |
| 50 to 1000 | > 11000 | X (100-<1000 fold) | Cc1ccc(O)c(C)c1NC(=O)c1cnc(NCC2CC2)s1 [BAA-347] |
| 50 to 1000 | > 11000 | X (100-<1000 fold) | Cc1ccc(O)c(C)c1NC(=O)c1cnc(NCc2ccn(C)n2)s1 [BAA-348, N-(3-hydroxy-2,6-dimethylphenyl)-2-(((1-methyl-1H-pyrazol-3-yl)methyl)amino) thiazole-5-carboxamide] |
| 50 to 1000 | > 11000 | X (100-<1000 fold) | Cc1ccc(O)c(C)c1NC(=O)c1cnc(NCc2ccccn2)s1 [BAA-349, N-(3-hydroxy-2,6-dimethylphenyl)-2-((pyridin-2-ylmethyl)amino) thiazole-5-carboxamide] |
| 50 to 1000 | > 11000 | Y (1000-5000 fold) | Cc1ccc(O)c(C)c1NC(=O)c1cnc(NCc2ccncc2)s1 [BAA-350, N-(3-hydroxy-2,6-dimethylphenyl)-2-((pyridin-4-ylmethyl)amino) thiazole-5-carboxamide] |
| 1000 to 11000 | > 11000 | W (10-<100 fold) | Cc1ccc(O)c(C)c1NC(=O)c1cnc(N[C@@H](C)c2ccccc2)s1 [BAA-351, (S)-N-(3-hydroxy-2,6-dimethylphenyl)-2-((1-phenylethyl)amino) thiazole-5-carboxamide] |
| 50 to 1000 | > 11000 | X (100-<1000 fold) | COc1ccc(CNc2ncc(C(=O)Nc3c(C)ccc(O)c3C)s2)cc1 [BAA-352, N-(3-hydroxy-2,6-dimethylphenyl)-2-((4-methoxybenzyl)amino)thiazole-5-carboxamide] |
| 1000 to 11000 | > 11000 | W (10-<100 fold) | Cc1ccc(O)c(C)c1NC(=O)c1cnc(NC2Cc3ccccc3C2)s1 [BAA-353, 2-((2,3-dihydro-1H-inden-2-yl)amino)-N-(3-hydroxy-2,6-dimethylphenyl)thiazole-5-carboxamide] |
| 1000 to 11000 | > 11000 | W (10-<100 fold) | Cc1ccc(O)c(C)c1NC(=O)c1cnc(N[C@H](C)c2ccccc2)s1 [BAA-354, (R)-N-(3-hydroxy-2,6-dimethylphenyl)-2-((1-phenylethyl)amino) thiazole-5-carboxamide] |
| 50 to 1000 | > 11000 | X (100-<1000 fold) | COc1ccccc1CNc1ncc(C(=O)Nc2c(C)ccc(O)c2C)s1 [BAA-355, N-(3-hydroxy-2,6-dimethylphenyl)-2-((2-methoxybenzyl)amino) thiazole-5-carboxamide] |
| 1000 to 11000 | > 11000 | W (10-<100 fold) | Cc1ccc(O)c(C)c1NC(=O)c1cnc(NCc2ccccc2C2CC2)s1 [BAA-356, 2-((2-cyclopropylbenzyl)amino)-N-(3-hydroxy-2,6-dimethylphenyl)thiazole-5-carboxamide] |
| 50 to 1000 | > 11000 | X (100-<1000 fold) | Cc1ccc(O)c(C)c1NC(=O)c1cnc(NCc2cc3ccccc3[nH]2)s1 [BAA-357, 2-(((1H-indol-2-yl)methyl)amino)-N-(3-hydroxy-2,6-dimethylphenyl)thiazole-5-carboxamide] |
| 50 to 1000 | > 11000 | X (100-<1000 fold) | Cc1ccc(O)c(C)c1NC(=O)c1cnc(NCc2nccs2)s1 [BAA-358, N-(3-hydroxy-2,6-dimethylphenyl)-2-((thiazol-2-ylmethyl)amino)thiazole-5-carboxamide] |
| 1000 to 11000 | > 11000 | W (10-<100 fold) | Cc1ccc(O)c(C)c1NC(=O)c1cnc(Nc2cc(C(C)(C)C)nn2-c2ccccc2)s1 [BAA-359, 2-((3-(tert-butyl)-1-phenyl-1H-pyrazol-5-yl)amino)-N-(3-hydroxy-2,6-dimethylphenyl)thiazole-5-carboxamide] |
| < 50 | > 11000 | Y (1000-5000 fold) | Cc1ccc(O)c(C)c1NC(=O)c1cnc(NCc2cn[nH]c2)s1 [BAA-360, 2-(((1H-pyrazol-4-yl)methyl)amino)-N-(3-hydroxy-2,6-dimethylphenyl) thiazole-5-carboxamide] |
| 1000 to 11000 | > 11000 | W (10-<100 fold) | Cc1ccc(O)c(C)c1NC(=O)c1cnc(NCc2nccn2C)s1 [BAA-362, N-(3-hydroxy-2,6-dimethylphenyl)-2-(((1-methyl-1H-imidazol-2-yl)methyl)amino)thiazole-5-carboxamide] |
| 50 to 1000 | > 11000 | X (100-<1000 fold) | Cc1cccc(CNc2ncc(C(=O)Nc3c(C)ccc(O)c3C)s2)c1O [BAA-363, N-(3-hydroxy-2,6-dimethylphenyl)-2-((2-hydroxy-3-methylbenzyl)amino)thiazole-5-carboxamide] |
| 1000 to 11000 | > 11000 | W (10-<100 fold) | Cc1nc(CNc2ncc(C(=O)Nc3c(C)ccc(O)c3C)s2)no1 [BAA-364, N-(3-hydroxy-2,6-dimethylphenyl)-2-(((5-methyl-1,2,4-oxadiazol-3-yl)methyl)amino) thiazole-5-carboxamide] |
| < 50 | 1000 to 11000 | X (100-<1000 fold) | Cc1cn(Cc2ncco2)nc1Nc1ncc(C(=O)Nc2c(C)ccc(O)c2C)s1 [BAA-366, N-(3-hydroxy-2,6-dimethylphenyl)-2-((4-methyl-1-(oxazol-2-ylmethyl)-1H-pyrazol-3-yl)amino) thiazole-5-carboxamide] |
| 50 to 1000 | > 11000 | X (100-<1000 fold) | Cc1ccc(O)c(C)c1NC(=O)c1cnc(Nc2nn(C)cc2-c2ccccc2)s1 [BAA-373, N-(3-hydroxy-2,6-dimethylphenyl)-2-((1-methyl-4-phenyl-1H-pyrazol-3-yl)amino)thiazole-5-carboxamide] |
| < 50 | 1000 to 11000 | X (100-<1000 fold) | Cc1cn(CC(=O)N2CCC2)nc1Nc1ncc(C(=O)Nc2c(C)ccc(O)c2C)s1 [BAA-374, 2-((1-(2-(azetidin-1-yl)-2-oxoethyl)-4-methyl-1H-pyrazol-3-yl)amino)-N-(3-hydroxy-2,6-dimethylphenyl)thiazole-5-carboxamide] |
| 1000 to 11000 | > 11000 | W (10-<100 fold) | Cc1ccc(O)c(C)c1NC(=O)c1cnc(Nc2c(C)cnn2Cc2cccc(F)c2)s1 [BAA-375, 2-((1-(3-Fluorobenzyl)-4-methyl-1H-pyrazol-5-yl)amino)-N-(3-hydroxy-2,6-dimethylphenyl)thiazole-5-carboxamide] |
| 50 to 1000 | 1000 to 11000 | W (10-<100 fold) | Cc1cn(-c2cncc(C(F)(F)F)c2)nc1Nc1ncc(C(=O)Nc2c(C)ccc(O)c2C)s1 [BAA-380, N-(3-hydroxy-2,6-dimethylphenyl)-2-((4-methyl-1-(5-(trifluoromethyl)pyridin-3-yl)-1H-pyrazol-3-yl)amino)thiazole-5-carboxamide] |
